The text below walks through data of patent US12429487B2, “Neurofilament protein for guiding therapeutic intervention in amyotrophic lateral sclerosis” (Biogen MA Inc., priority 2018, dated 2025).

One data set deals with ALS patients. As to conditions: EMPOWER, 12 months, vs placebo. From the text: EMPOWER was a Phase 3 global randomized clinical trial (RCT) of the safety and efficacy of dexpramipexole in the treatment of ALS conducted at 81 academic medical centers enrolling 943 adults (see Cudkowicz M E et al., Lancet Neurol. 2013 November; 12(11):1059-67).
The subjects included in the EMPOWER study had to have a diagnosis of possible, probable, or definite ALS, have had ALS symptoms for fewer than 24 months, have an SVC value that was at least 65% of the predicted value, and no significant comorbidities.
In the study, the subjects were allocated in a 1:1 ratio to treatment with dexpramipexole or placebo for 12 months, […]

For data set [1], the system named is plasma neurofilament heavy chain (NFH). The conditions noted are these: EMPOWER, vs placebo, FIG. 2.
From the text: Determination of baseline as well as longitudinal plasma neurofilament heavy chain (NFH) concentrations in the clinical trial of dexpramipexole, EMPOWER, and assessment of their relationship to clinical outcomes including survival and the rates of decline of muscle strength (assessed by hand-held dynamometry [HHD]), slow vital capacity (SVC), and ALSFRS-R).
Plasma neurofilament heavy (NFH), measured using a NFH assay on the Ella, an automated microfluidic cartridge based immunoassay platform from Protein Simple.
The test system of the next data set is people with ALS. The conditions noted are these: cited from earlier work.
For the next data set, the system named is SOD1 mRNA. Nature of the data set: SOD1 mRNA lowering in human neuroblastoma cell line SH-SY5Y. It is filed as cell-based. As to conditions: SH-SY5Y cells.
For data set [2], the system named is SOD1^G93A mice. Description: SOD1^G93A mice: weight, rotarod, survival after i.c.v. bolus. The class given is in vivo, mouse. The conditions noted are these: 300 μg bolus at 50 and 94 days of age. As for the experimental part: To investigate whether a SOD1-lowering ASO strategy could delay disease parameters, SOD1^G93A mice (B6.CgTg(SOD1*G93A)Gur/J) were infused Intracerebroventricular […] with bolus doses of 300 μg ASO1 at 50 and 94 days of age. Weight and performance on rotarod were tested weekly.
In general terms: The rotarod test checks motor coordination on a turning rod.

The next data set deals with SOD1^G93A rats. Nature of the data set: SOD1^G93A rats: weight loss onset and survival after intrathecal bolus. As to conditions: 1000 μg intrathecal bolus, 65-day-old rats. The class given is in vivo, rat. As for the experimental part:
SOD1^G93A rats (Taconic Biosciences, model 2148) received a 30-μl intrathecal bolus injection via polyethylene catheter placed between the L3 and L5 vertebrae of the lumber spinal cord. […] All ASOs were diluted in aCSF. All treatment groups were sexual phenotype- and litter-matched to control for drift in copy count or sexual phenotype-induced variances.

Data set [3] deals with SOD1^G93A mice. Nature of the data set: SOD1^G93A mice: CMAP and neuromuscular junction innervation. The conditions noted are these: for compound muscle action potential (CMAP): 100 μg intraventricularly once at 5 weeks of age, next 12 weeks. It is filed as in vivo, mouse. From the text: To test whether SOD1 reduction by ASO could affect markers of disease, […] in compound muscle action potential (CMAP), neuromuscular junction innervation, and serum phospho-neurofilament heavy chain (pNfH) levels. In SOD1^G93Amice, CMAP declines over time, preceding the loss of motor neurons.

Data set [4] has as its system serum phospho-neurofilament heavy chain (pNfH). Nature of the data set: SOD1^G93A mice: serum pNfH by ELLA microfluidic ELISA. The class given is in vivo, mouse. As to conditions: single dose 300 μg at 5 weeks; 8 and 10 weeks of age; vs control ASO, FIG. 4. As for the experimental part: pNfH increases in CSF and serum in ALS rodent models, human patients with ALS, and other neurodegenerative diseases. To look at phosphorylated neurofilament heavy chain levels in the serum, blood was collected at baseline (5 weeks) before i.e.v. injection, and then again at 8 and 10 weeks of age from the SOD1^G93A mutant mice injected once at 5 weeks of age with a single dose of 300 μg ASO1). pNfH serum levels were measured through the ELLA microfluidic ELISA platform (Protein Simple) according to the manufacturer's instructions. Briefly, a maximum of 100 μl blood was collected through facial vein puncture at the indicated time points. Serum samples were prepared by centrifugation of BD Vacutainer SST tubes (BD Diagnostics) and stored at −80° C. until used.
In general terms: In an ELISA, binding on a coated surface is turned into a signal by an enzyme label.

A further data set concerns CSF SOD1 protein. Nature of the data set: SAD/MAD clinical trial in SOD1 ALS patients: CSF SOD1 concentration. The class given is in vivo, human. As to conditions: 40 mg, 60 mg and 100 mg cohorts; maximal at 100 mg, Day 85. As for the experimental part:
(§1) A double-blind, randomized, placebo-controlled, clinical trial was conducted in SOD1 ALS patients. The trial involved single and multiple ascending dose (SAD/MAD) studies. In the MAD portion, participants received 5 doses of study drug over approximately 3 months. Fifty adult participants with SOD1 mutation were randomized 3:1 (ASO: placebo) per cohort to receive 20 mg, 40 mg, 60 mg, or 100 mg of placebo or a SOD-1 decreasing ASO-ASO1 (SEQ ID NO:8).

Another data set deals with SOD1 ALS patients. Description: SAD/MAD clinical trial in SOD1 ALS patients: ALSFRS-R and SVC. The class given is in vivo, human. As to conditions: vs placebo. As for the experimental part:
as §1

The next data set has as its system pNfH and NfL. Nature of the data set: SAD/MAD clinical trial in SOD1 ALS patients: plasma and CSF pNfH and NfL. The class given is in vivo, human. As for the experimental part:
as §1
Baseline pNfH and NfL levels were highest in fast progressing patients and correlated with disease activity (as measured by ALSFRS-R prerandomization slope). […] In FIGS. 7A-7D, overall placebo (n=12) is the solid line at, near, or above the 1.0 baseline measure throughout the study; overall ASO1 100 mg treatment (n=10) is the solid line declining below the 1.0 baseline measure throughout the study; fast progressing placebo (n=4) is the dotted line at, near, or above the 1.0 baseline measure throughout the study; and fast progressing ASO1 100 mg treatment (n=4) is the dotted line declining below the 1.0 baseline measure throughout the study. pNfH levels were assessed using the ProteinSimple™ Simple Plex Ella immunoassay. NfL levels were assessed using the Quanterix Simoa NfL Advantage assay.

Entries after “also recorded” stand apart in the source; their conditions may differ. Where two headings read alike, the source gives them in different places. Oligonucleotides are written 5' to 3', each unit as a sugar letter and its base; * is a phosphorothioate linkage, no mark a phosphodiester; rarer units and linkages stand in square brackets, end groups in braces. Plain capitals give the bases only. e = 2'-O-(2-methoxyethyl) (MOE); k = constrained ethyl (cEt); [5mC] = 5-methylcytosine; d = 2'-deoxy (DNA)

As for `CCCN[C@@H]1CCc2nc(N)sc2C1` [dexpramipexole], the “ALS symptoms / clinical efficacy” value is “did not reduce ALS symptoms” in the data set on ALS patients (listed as depramipexole) and “without clinical efficacy” with ALS patients (listed as dexpramiexole). In addition, the “longitudinal plasma NFH course” value in data set [1] is “no difference”.

`CC1=NN(c2ccccc2)C(=O)C1` [edaravone]: in the data set with people with ALS, the “disease progression / decline in daily functioning” value is listed as “reduction the decline in daily functioning”; the side effects entry is “bruising, gait disturbance, hives, swelling and shortness of breath”.

In the case of `Nc1nc2ccc(OC(F)(F)F)cc2s1` [riluzole], in the data set with people with ALS, the “disease progression / decline in daily functioning” value is reported as “appears to slow the disease's progression in some people with ALS”; the side effects entry is “dizziness, gastrointestinal conditions and liver function changes”.

For the compound “CAoGGoATACATTTCTACoAGoCT (antisense CAGGATACATTTCTACAGCT; modified backbone linkages at marked places, type not given here) [ASO1]”, the “SOD1 mRNA” value in the data set on SOD1 mRNA is listed as “potently lowered SOD1 mRNA in a dose-dependent manner”. Moreover, in the data set on SOD1^G93A mice [2], the “maintained weight, days longer than inactive ASO” value is given as 26 days and the “median survival longer compared with inactive ASO” value was found to be 37 days. Further, in the data set with SOD1^G93A mice [2] (vs inactive ASO), the extension of survival worked out at 22% and the performance on rotarod result is listed as “performed better on rotarod”. In the data set on SOD1^G93A rats, the “maintained weight, days longer than aCSF” value was determined as 70 days. Moreover, in the data set with SOD1^G93A mice [3], the “compound muscle action potential (CMAP)” value is given as “maintained CMAP”. Further, the “innervation of the tibialis anterior muscles” value with SOD1^G93A mice [3] (single dose 300 μg at 5 weeks of age, FIG. 3) is recorded as “maintained innervation”. Further, in data set [4], the “serum pNfH levels” value was “lower levels of pNfH”. The “CSF SOD1 concentrations, change from baseline” value in the data set with CSF SOD1 protein is given as “Reductions from baseline”. In the data set on SOD1 ALS patients (patients with fast-progressing SOD1 mutations), the clinical decline entry is reported as “slowing of clinical decline”. For the same compound, in the data set on SOD1 ALS patients (FIG. 6A), the “functional decline (ALSFRS-R)” value was “slowing of functional decline”. For the same compound, in the data set with SOD1 ALS patients (FIG. 6B), the “decline in respiratory function (SVC)” value is given as “slowing of decline in respiratory function”. In addition, the “plasma pNfH levels” value in the data set with pNfH and NfL (100 mg over time vs placebo, FIG. 7A) is reported as “reduction”. The “plasma NfL levels” value with pNfH and NfL (100 mg over time vs placebo, FIG. 7B) is given as “reduction”. Besides, the “CSF NfL levels” value with pNfH and NfL (100 mg over time vs placebo, FIG. 7D) is listed as “reduction”. Also, the “CSF pNfH levels” value in the data set on pNfH and NfL (100 mg vs placebo, overall) was “Lowering of CSF pNfH; also recorded: reduction”. Also, the “CSF pNfH levels” value in the data set with pNfH and NfL (patients with fast-progressing SOD1 mutations, vs placebo) is listed as “reduction in CSF pNfH levels”.

As to “CCGTCGCCCTTCAGCACGCA (antisense e[5mC]*e[5mC]*eG*eT*e[5mC]*dG*d[5mC]*d[5mC]*d[5mC]*dT*dT*d[5mC]*dA*dG*d[5mC]*eA*e[5mC]*eG*e[5mC]*eA) [compound 333611, reference compound]”, in the data set with SOD1^G93A rats, the “onset of weight loss, median” value came out at 139 days.

For “CCoToAoTAGGACTATCCAoGoGoAA (antisense CCTATAGGACTATCCAGGAA; chemically modified at marked places, type not given here) [Inactive ASO (in vivo), reference compound]”, the “compound muscle action potential (CMAP)” value with SOD1^G93A mice [3] is given as “reduced by more than half”. Besides, in the data set on SOD1^G93A mice [3] (tibialis anterior, FIG. 3), the “denervation of muscle endplates” value is recorded as “more than 75%”.

As for “TToAoATGTTTATCAoGoGAT (antisense eT*eTeAeA*dT*dG*dT*dT*dT*dA*dT*d[5mC]*kAkGeG*eA*eT) [ASO2]”, in the data set on SOD1 mRNA, the “SOD1 mRNA” value is “potently lowered SOD1 mRNA in a dose-dependent manner”. Also, the “maintained weight, days longer than aCSF” value with SOD1^G93A rats stood at 67 days.
